Values joined by “and” are separate entries in the source; they are usually repeats but may differ in a detail not shown here. Equal values may be shown once. Read-outs that look alike come from different tables or passages of the source.
Columns and labels:
[1] = Preliminary cytotoxicity assay (WST-8 reduction, viability and morphological observations); format: cell-based, human; details: human, normal human epidermal keratinocytes (NHEK)
Method: (§1) In the present study, the effects of compound L-Ergothioneine were investigated in normal human epidermal keratinocytes (NHEK) under basal or UV-irradiated conditions. More specifically, the effects of this compound were evaluated using RT-qPCR technology. Extracted mRNA was analyzed using a PCR array (“mQPA-8-Nrf2”) for the analysis of 8 target genes (including 1 housekeeping gene) selected for their role in Nrf2 pathway. Prior to this assay, a preliminary cytotoxicity assay was performed on compound L-Ergothioneine and Resveratrol (reference in basal condition) using a standard WST-8 reduction assay, in order to determine the concentrations to be tested in this study.
(§2) Cell type: Normal human epidermal keratinocytes (NHEK) used at the 3rd passage. Culture conditions: 37° C., 5% CO2. Culture medium: Keratinocyte-SFM optimized for the assay, supplemented with Epidermal Growth Factor Pituitary extract. Assay medium: Keratinocyte-SFM optimized for the assay. Test compound: L-Ergothioneine in ultrapure water. Test concentrations: 0.5, 3 and 30 μM. Reference: Resveratrol. Test concentration: 20 μM.
(§3) Cell type: NHEK in assay medium. Incubation time: 24 hours.
(§4) After treatment, the cells were incubated with WST-8 (highly water-soluble tetrazolium salt) reduced in a water-soluble orange colored product (formazan) by succinate dehydrogenase (mitochondrial enzyme). This transformation is proportional to the number of living cells and their metabolic activity. The optical density (OD) of the extracts at 450 nm was recorded with a spectrometer (VERSAmax, Molecular Devices).

[2] = tested on: normal human epidermal keratinocytes (NHEK); assay: as above; format: cell-based; details: 24 hours; for Viability (%): single replicates
Method: as §1, §2, §3, §4

RPS28 = assay: RT-qPCR PCR array mQPA-8-Nrf2, housekeeping gene RPS28; format: cell-based, human; details: basal conditions, 20 μM
Method: as §1, §2
(§5) Keratinocytes were seeded in 24-well plates and cultured for 24 hours in culture medium and in assay medium for a further 24 hours. The medium was then replaced by assay medium containing or not (control) the compound or Resveratrol and cells were pre-incubated for 24 hours.
(§6) After pre-incubation, the medium was then removed and replaced by a PBS solution. For basal conditions, the plate was kept in the dark during the irradiation time. For irradiated conditions, the cells were irradiated with UVB−275 mJ/cm^2 (+UVA−2 J/cm^2) using a SOL500 Sun Simulator equipped with an H2 filter (Dr. Hönle, AG). After irradiation time, the treatments were renewed, and the cells were incubated for 24 hours. All experimental conditions were performed in n=3. At the end of incubation, the cells were washed in phosphate buffered saline (PBS) solution and immediately frozen at −80° C.
(§7) The expression of markers was analyzed using RT-qPCR method on total RNA extracted from the cell monolayers of each experimental condition (before RNA extraction, the replicates of the same experimental condition were pooled). The analysis of transcripts was performed in n=2 using a PCR array dedicated to research and adapted to ‘screening’ format and targeting 8 genes selected for their role in Nrf2 pathway.
(§8) Total RNA was extracted from each sample using TriPure Isolation Reagent® according to the supplier's instructions. The amount and quality of RNA were evaluated using capillary electrophoresis (Bioanalyzer 2100, Agilent technologies). The complementary DNA (cDNA) was synthetized by reverse transcription of total RNA in presence of oligo(dT) and «Transcriptor Reverse Transcriptase» (Roche Molecular System Inc.). The cDNA quantities were then adjusted before PCR.
(§9) The PCR (Polymerase Chain Reaction) were performed using the «LightCycler®» system (Roche Molecular System Inc.) according to the supplier's instructions. The reaction mix (10 μl final) was prepared as follows: 2.5 μl of cDNA; primers (forward and reverse); reagent mix (Roche) containing taq DNA polymerase, SYBR Green I and MgCl2.
(§10) The incorporation of fluorescence in amplified DNA was continuously measured during the PCR cycles. […] The value selected for RE calculations is the “output point” (Ct) of the fluorescence curve. For a considered marker, the highest is the cycle number; the lowest is the mRNA quantity. The RE value was calculated with the formula: (½^number of cycles)×10^6. The PCR array used in the present study included 1 reference gene (RPS28).

NQO1 = assay: RT-qPCR PCR array mQPA-8-Nrf2, NQO1 expression in NHEK; format: cell-based, human; details: basal conditions, 20 μM
Method: as §1, §2, §5, §6, §7, §8, §9, §10

HMOX1 = assay: RT-qPCR PCR array mQPA-8-Nrf2, HMOX1 expression in NHEK; format: cell-based, human; details: basal conditions, 20 μM
Method: as §1, §2, §5, §6, §7, §8, §9, §10

MT1G = assay: RT-qPCR PCR array mQPA-8-Nrf2, MT1G expression in NHEK; format: cell-based, human; details: basal conditions, 20 μM
Method: as §1, §2, §5, §6, §7, §8, §9, §10

TXN = assay: RT-qPCR PCR array mQPA-8-Nrf2, TXN expression in NHEK; format: cell-based, human; details: basal conditions, 20 μM
Method: as §1, §2, §5, §6, §7, §8, §9, §10

TXNRD1 = assay: RT-qPCR PCR array mQPA-8-Nrf2, TXNRD1 expression in NHEK; format: cell-based, human; details: basal conditions, 20 μM
Method: as §1, §2, §5, §6, §7, §8, §9, §10

GCLC = assay: RT-qPCR PCR array mQPA-8-Nrf2, GCLC expression in NHEK; format: cell-based, human; details: basal conditions, 20 μM
Method: as §1, §2, §5, §6, §7, §8, §9, §10

GCLM = assay: RT-qPCR PCR array mQPA-8-Nrf2, GCLM expression in NHEK; format: cell-based, human; details: basal conditions, 20 μM
Method: as §1, §2, §5, §6, §7, §8, §9, §10

Nrf2 pathway = assay: Gene expression profile of keratinocytes (mQPA-8-Nrf2 array as a whole); format: cell-based, human; details: basal, tested at 20 μM
Method: as §1, §2, §5, §6, §7

NHEK = assay: Morphological observation of cells at the end of the culture, irradiated condition; format: cell-based, human
Method: as §5, §6

[3] = 24 hours of incubation, read-out: Viability Mean (%)
[4] = single replicates, 24 hours, read-out: Viability (%)

Oc1ccc(C=Cc2cc(O)cc(O)c2)cc1 [Resveratrol]
viability at 24 h, 0.247 µM [1, 3]: 99%
viability at 24 h, 0.741 µM [1, 3]: 101%
viability at 24 h, 2.2 µM [1, 3]: 106%
viability at 24 h, 6.7 µM [1, 3]: 106%
viability at 24 h, 20 µM [1, 3]: 93%
viability at 24 h, 60 µM [1, 3]: 65%
viability at 24 h, 180 µM [1, 3]: 31%
viability at 24 h, 540 µM [1, 3]: 8%
viability at 24 h, 0.247 µM [1, 4]: 101%
viability at 24 h, 0.741 µM [1, 4]: 102%
viability at 24 h, 2.2 µM [1, 4]: 109%
viability at 24 h, 6.7 µM [1, 4]: 109%
viability at 24 h, 20 µM [1, 4]: 97%
viability at 24 h, 60 µM [1, 4]: 65%
viability at 24 h, 180 µM [1, 4]: 32%
viability at 24 h, 540 µM [1, 4]: 8%
Morphological observations ([2]; 0.247 μM): +
Morphological observations ([2]; 0.741 μM): +
Morphological observations ([2]; 2.2 μM): +
Morphological observations ([2]; 6.7 μM): +
Morphological observations ([2]; 20 μM): +
Morphological observations ([2]; 540 μM): −, *
Viability (%) ([2]; 0.247 μM): 98%
Viability (%) ([2]; 0.741 μM): 100%
Viability (%) ([2]; 2.2 μM): 105%
Viability (%) ([2]; 6.7 μM): 108%
Viability (%) ([2]; 20 μM): 88%
Viability (%) ([2]; 60 μM): 67% and 64%
Viability (%) ([2]; 180 μM): 29%
RPS28 % Control RPS28 (RPS28): 100 % Control
NQO1 % Control RPS28 (NQO1): 1468 % Control
HMOX1 % Control RPS28 (HMOX1): 451 % Control
MT1G % Control RPS28 (MT1G): 79 % Control
TXN % Control RPS28 (TXN): 345 % Control
TXNRD1 % Control RPS28 (TXNRD1): 492 % Control
GCLC % Control RPS28 (GCLC): 554 % Control
GCLM % Control RPS28 (GCLM): 736 % Control
Expression of genes involved in oxidative and cellular stress response (Nrf2 pathway): stimulation of the expression of all genes (except MT1G)
Viability of NHEK under irradiated condition (NHEK): strongly impacted
